The results in this text go back to ChEMBL document CHEMBL1201862, “PubChem BioAssay data set” (2004).

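The compound was tested at five concentrations on cells cultured in 96-well plates, with a 48-hour exposure period. The concentration for 50% growth inhibition is given as GI50.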 Activity calls are given as the source filed them. Rule as the data show it: active = GI50 up to about 1.1 µM and inactive = higher.

Test systems include COLO 205; UACC-257; SK-MEL-5; M14; OVCAR-4; TK-10; SW-620; PC-3; HCT-15; 786-0; SR; UACC-62; OVCAR-5; MDA-N; RXF 393; NCI-H226; DU-145; K562.
Common to all, as to experiment: inhibition of tumour cell growth, NCI panel, 48 h

For the compound `C[N+]12C=CC=C1C(N1CCCC1)c1sc(-c3ccc(Cl)cc3)cc12` (configuration not stated), the GI50 in the assay on COLO 205 was 16.9 µM (inactive); in the assay on UACC-257, 15.5 µM (inactive); with SK-MEL-5, 17.9 µM (inactive); with M14 it was 17.1 µM (inactive); with OVCAR-4 it was 18.2 µM (inactive); with TK-10, 19.6 µM (inactive). Further, the GI50 in the assay with SW-620 is 15.9 µM (inactive); in the assay on PC-3, 16.3 µM (inactive); in the assay on HCT-15, 30.5 µM; with 786-0 it was 15.4 µM (inactive); in the assay on SR, 11.6 µM (inactive); in the assay on UACC-62, 15.1 µM (inactive). For the same compound, the GI50 in the assay on OVCAR-5 is 19.2 µM (inactive); with MDA-N, 15.8 µM (inactive); in the assay on RXF 393 it was 17.9 µM (inactive); with NCI-H226, 17 µM (inactive); in the assay with DU-145, 16.9 µM (inactive).
Regarding `COC(=O)c1c2c(cc3c1CC1(Cc4cc5c(c(C=O)c4C1)CCC5)C3)CCC2` (configuration not stated), the GI50 in the assay on UACC-257 was 21.2 µM (inactive); with SK-MEL-5, 16 µM (inactive); with M14 it was 22.2 µM (inactive); in the assay on OVCAR-4, > 100 µM (inactive); in the assay on TK-10, 98.4 µM (inactive); in the assay on SW-620, 53.2 µM (inactive). Further, the GI50 with PC-3 was 30.8 µM (inactive); in the assay on K562, 13.4 µM (inactive); in the assay on HCT-15, 40.3 µM; with 786-0, 29.4 µM (inactive); in the assay with SR it was 19.3 µM (inactive); in the assay on OVCAR-5, 67.8 µM (inactive). For the same compound, the GI50 in the assay on MDA-N is 34 µM (inactive); with RXF 393, 30.7 µM (inactive); with DU-145, 38.1 µM (inactive).
Regarding `CC1CC(C(=O)OC2OC(COC3OC(CO)C(OC4OC(C)C(O)C(O)C4O)C(O)C3O)C(O)C(O)C2O)C2CCC3(C)C(=CCC4(C)C3CCC3C(C)(CO)C(O)C(O)CC34C)C2C1C` (configuration not stated), the GI50 with COLO 205 was 17.3 µM (inactive); in the assay on UACC-257 it was > 10 µM (inactive); with SK-MEL-5 it was 18.7 µM (inactive); in the assay with M14, 35.7 µM (inactive); in the assay on OVCAR-4, 15.1 µM (inactive); with TK-10, > 100 µM (inactive). In addition, the GI50 is 30.1 µM (inactive) in the assay with SW-620; 29.5 µM (inactive) with PC-3; 34.3 µM (inactive) with K562; above 100 µM in the assay with HCT-15; 21 µM (inactive) in the assay with 786-0; 17.9 µM (inactive) in the assay with SR. Besides, the GI50 in the assay with UACC-62 was 17.7 µM (inactive); in the assay with OVCAR-5, 26.7 µM (inactive); in the assay on MDA-N it was 19.5 µM (inactive); in the assay on NCI-H226 it was 32.5 µM (inactive); in the assay on DU-145, 33.5 µM (inactive).
Regarding `CCn1c(=O)c2c3cc(OC(C)=O)ccc3oc2c2ccc(OC(C)=O)cc21`, the GI50 with COLO 205 is 20.7 µM (inactive); in the assay on UACC-257, 55.1 µM (inactive); in the assay with SK-MEL-5, 33 µM (inactive); in the assay with M14, 45.9 µM (inactive); in the assay on OVCAR-4, 36.9 µM (inactive); with TK-10, 29.5 µM (inactive). Further, the GI50 with SW-620 was 38.4 µM (inactive); with PC-3, 33 µM (inactive); in the assay with K562, 33.8 µM (inactive); in the assay on HCT-15, 39.1 µM; with 786-0, 56.1 µM (inactive); in the assay on SR it was 36.3 µM (inactive). In addition, the GI50 in the assay on UACC-62 was 21.7 µM (inactive); in the assay with MDA-N it was 33.3 µM (inactive); in the assay with RXF 393 it was 37.2 µM (inactive); with NCI-H226 it was 34.4 µM (inactive); with DU-145, 36.1 µM (inactive).
For the compound `c1ccc(/N=C2\c3ccccc3CN2c2ccccc2)cc1`, the GI50 with COLO 205, in the assay with UACC-257, with SK-MEL-5, in the assay on M14, with OVCAR-4 and with TK-10 was > 100 µM (inactive) throughout. The GI50 in the assay on SW-620 was > 100 µM (inactive); in the assay with PC-3, > 100 µM (inactive); in the assay on K562, > 100 µM (inactive); with HCT-15, above 100 µM; in the assay on 786-0 it was > 100 µM (inactive); in the assay on SR, > 100 µM (inactive). Moreover, the GI50 in the assay on UACC-62, in the assay on MDA-N, in the assay with RXF 393, in the assay on NCI-H226 and with DU-145 was > 100 µM (inactive) each time.
`CCC[C@H](O)[C@@H](CNc1cc(NC(C)=O)nc(NC(C)=O)n1)N(Cc1ccccc1)Cc1ccccc1`: the GI50 in the assay on COLO 205 was 26.3 µM (inactive); in the assay with UACC-257, 29.2 µM (inactive); with SK-MEL-5, 20.9 µM (inactive); with M14, 26.5 µM (inactive); with OVCAR-4, 15.7 µM (inactive); with TK-10, 20.3 µM (inactive). Moreover, the GI50 is > 100 µM (inactive) in the assay with SW-620; 13.5 µM (inactive) in the assay on PC-3; > 100 µM (inactive) with K562; 31.7 µM in the assay with HCT-15; 17.7 µM (inactive) in the assay with 786-0; 49.5 µM (inactive) in the assay on SR. In addition, the GI50 in the assay on UACC-62 was 18.3 µM (inactive); in the assay with OVCAR-5 it was 27.9 µM (inactive); in the assay on MDA-N, 47 µM (inactive); in the assay with NCI-H226, 14.3 µM (inactive); in the assay with DU-145, 61.9 µM (inactive).
For the compound `Cc1ccc(/C(=C\C(=O)C(=O)NC23CC4CC(CC(C4)C2)C3)Sc2ccccc2)cc1`, the GI50 in the assay with COLO 205 was 3.5 µM (inactive); in the assay on UACC-257 it was > 10 µM (inactive); in the assay with SK-MEL-5, > 10 µM (inactive); in the assay with M14, > 10 µM (inactive); in the assay with OVCAR-4, 6.43 µM (inactive); in the assay on TK-10, > 10 µM (inactive). Moreover, the GI50 with SW-620 was > 10 µM (inactive); in the assay on PC-3 it was 4.31 µM (inactive); with K562, 4.76 µM (inactive); with HCT-15 it was above 10 µM; in the assay with 786-0, > 10 µM (inactive); with SR, > 10 µM (inactive). Also, the GI50 with OVCAR-5, in the assay on MDA-N, with RXF 393, in the assay with NCI-H226 and in the assay on DU-145 was > 10 µM (inactive) in each case.
With `Cc1cc(C)c(C(=O)c2nnc3ccccc3c2N)c(C)c1`, the GI50 is 15.2 µM (inactive) in the assay with COLO 205; 37.9 µM (inactive) with UACC-257; 13.5 µM (inactive) in the assay with SK-MEL-5; 13.9 µM (inactive) in the assay on M14; 26.7 µM (inactive) with SW-620; 17.4 µM (inactive) in the assay on PC-3. The GI50 in the assay on 786-0 was 12.3 µM (inactive); in the assay with SR, 24 µM (inactive); with UACC-62, 16.4 µM (inactive); in the assay on OVCAR-5, 15.8 µM (inactive); in the assay with MDA-N, 16.7 µM (inactive); in the assay on NCI-H226 it was 16.5 µM (inactive). In the assay with DU-145, the GI50 was 27 µM (inactive).
For the compound `COC1=C(OC)C(=O)C(Cc2c(-c3ccccc3)nc3sc(Cl)cn23)=C(C)C1=O`, the GI50 in the assay with COLO 205 was 18.7 µM (inactive); with UACC-257, 16 µM (inactive); in the assay with SK-MEL-5, 15.2 µM (inactive); in the assay on M14 it was 15.8 µM (inactive); with OVCAR-4, 3.61 µM (inactive); with TK-10 it was 20 µM (inactive). Also, the GI50 in the assay on SW-620 was 23.3 µM (inactive); in the assay with PC-3 it was 16.6 µM (inactive); with K562, 23.9 µM (inactive); with HCT-15 it was 14.5 µM; in the assay with 786-0, 19.6 µM (inactive); in the assay with SR, 22.9 µM (inactive). Moreover, the GI50 is 11.9 µM (inactive) in the assay with UACC-62; 28.2 µM (inactive) in the assay on OVCAR-5; 16.3 µM (inactive) with MDA-N; 17.1 µM (inactive) in the assay with RXF 393; 20 µM (inactive) with DU-145.
